Results reported in patent US20260355239A1, “COMBINATION OF A T CELL THERAPY AND CONTINUOUS OR INTERMITTENT DGK INHIBITOR DOSING” (Juno Therapeutics, Inc., priority 2022, published 2026).

Experiments:
[1] = system: CD19-expressing lymphoma cells (K562.CD19, Granta-519, Raji); assay: Cytolytic activity of chronically stimulated, concurrently treated CAR-T cells, 2D co-culture; assay type: cell-based, human; details: concurrent treatment during chronic stimulation; 2D re-challenge without compound
Protocol: (§1) To simulate conditions of chronic stimulation, approximately 20,000 anti-CD19 CAR-expressing T cells of a combined CAR-T cell composition produced as described in Example 2 from two healthy adult donors were incubated with 30 µg/mL of plate-bound CAR-specific anti-idiotypic antibody (see, e.g., WO2018/023100) at 37 °C for a period of seven days. During this seven-day period, engineered CAR T cells were concurrently treated with Compound 17(0.1-1000 nM) or a vehicle control added at day 0.
(§2) Stimulated CAR T cells were then re-challenged with CD19-expressing tumor cells or tumor spheroids in the absence of Compound 17, and cytolytic activity and cytokine production were assessed.
(§3) To assess cytolytic function, the stimulated CAR-T cell composition was co-cultured with various CD19-expressing lymphoma cells at a 2.5:1 effector:target ratio. The tumor cells were engineered to express NucLight Red (NLR) and tumor cell number was monitored by Incucyte®. […] Duplicate values for cell compositions manufactured from the two different healthy donors are shown.

K562.CD19 cells = assay: Rescue treatment: cytolytic activity of chronically stimulated CAR-T cells, 2D, K562.CD19; assay type: cell-based, human; details: higher concentrations, 2D co-culture
anti-CD19 CAR T cells = assay: In vivo expansion and/or persistence of CAR T cells from different donors, Raji-rFluc NSG mice (Example 8); details: 0.3 mg/kg oral once daily Days 1-7, four donors, vs CAR T cells alone
Protocol: The effects of Compound 17 administration on in vivo expansion and/or persistence of CAR T cells produced from different healthy donors were assessed.

Granta-519 cells = assay: Rescue treatment: cytolytic activity of chronically stimulated CAR-T cells, 2D, Granta-519; assay type: cell-based, human; details: higher concentrations, 2D co-culture
[2] = system: anti-CD19 CAR-T cells with K562.CD19, Granta-519 and Raji cells; assay: Cytokine production of chronically stimulated, concurrently treated CAR-T cells, 2D co-culture; assay type: cell-based, human; details: concurrent treatment during chronic stimulation; 2D re-challenge, 48 h
Protocol: as §1, §2, §3
Supernatant was collected after 48 hours from the above co-cultures of chronically stimulated CAR-expressing T cells and CD19-expressing tumor cells. Cytokine production was measured from the supernatant by meso scale discovery (MSD) analysis of the collected cell supernatants. […]

anti-CD19 CAR-T cells = assay: CAR-T cell viability; assay type: cell-based, human; details: acute stimulation assays
Source text: T cell compositions containing T cells expressing an exemplary anti-CD19 CAR were generated from leukapheresis samples from two healthy human adult donors by a process that included immunoaffinity-based selection of T cells by separately selecting CD4+ and CD8+ cells from the samples, resulting in two compositions enriched for CD4+ and CD8+ cells, respectively, per donor. Cells of the enriched CD4+ and CD8+ compositions were separately activated with anti-CD3/anti-CD28 beads and subjected to lentiviral transduction with a vector encoding an anti-CD19 CAR. […]
Prior to use, the cryopreserved CD4+ and CD8+ CAR-engineered cell compositions were thawed and combined at approximately a 1:1 CD4:CD8 ratio for each donor to prepare a combined CD4+ CAR+ and CD8+ CAR+ T cell composition. The effects of treatment with Compound 17 at various concentrations (0.1 nM, 1 nM, 10 nM, 100 nM, or 1000 nM) added at day 0 during stimulation of the combined CAR-T cell composition with a plate-bound CAR-specific anti-idiotypic antibody (see, e.g., WO2018/023100) or during co-culture with CD19-expressing cells was then assessed.

Human venous whole blood = assay: Human Whole Blood IFN-γ Assay; assay type: cell-based; details: anti-CD3 + anti-CD28, 24 h, normalized to 3 μM reference compound, read-out: INFg Whole Blood Normalized-Agonist EC50
Protocol: 9. Human Whole Blood IFN-γ Assay
Human venous whole blood (22.5 μL per well), obtained from healthy donors, was pre-treated with compounds for one hour at 37 °C in a humidified 95% air/5% CO2 incubator. The blood was stimulated with 2.5 μL anti-human CD3 and anti-CD28 mAb at a final concentration of 1 μg/mL each for 24 hours at 37 °C. IFN-γ in the supernatants was measured using AlphLISA kit (Cat #AL217).

Nalm6-rFluc cells = assay: Tumor cell re-challenge after CAR T cell combination, Nalm6-rFluc (Example 11); assay type: in vivo, NSG mice
Protocol: Mice in Example 10 who received the CAR T cell combination with continuous Compound 17 dosing regimen were re-challenged by intravenous injection of 5×10^6 Nalm6-rFluc cells on Day 71. For comparison, 5×10^6 Nalm6-rFluc cells were intravenously injected into naive mice that had not previously been injected with or administered Nalm6-rFluc cells, CAR T cells, or Compound 17 (n=4 per group). […] Tumor burden was assessed for 10 days following re-challenge. Survival of treated mice was assessed until 30 days post re-challenge.

[3] = system: Granta-519 tumor spheroids; assay: Rescue treatment: cytolytic activity of chronically stimulated CAR-T cells, 3D spheroids, Granta-519; assay type: cell-based, human; details: day 9
[4] = system: Raji lymphoma tumor cells; assay: In vivo anti-tumor effect of dosing regimens with anti-CD19 CAR T cells, Raji-rFluc NSG mice (Example 6)
Protocol: The in vivo anti-tumor effects of different dosing regimens for Compound 17 in combination with anti-CD19 CAR T cells were assessed.
Following CAR-T cell administration, mice received one of three different Compound 17 dosing regimens or a vehicle control (n=8 per group). Specifically, mice received Compound 17 or vehicle control once daily (i) on Days 1-14 (“Early”), (ii) on Days 14-42 (“Delayed”), or (iii) on Days 1-28 (“Continuous”) of the combination therapy. All doses of Compound 17 were 0.3 mg/kg and were administered orally. […] Flow cytometry for assessing CD4:CD8 ratio was performed at Day 15.

[5] = 0.3 mg/kg oral once daily from Day 1, relative to vehicle

Question: With CC[C@H]1CN([C@@H](CC)c2ccc(C(F)(F)F)cc2)[C@H](CC)CN1c1nc(=O)n(C)c2ccc(C#N)nc12 [Compound 17, 4-((2S,5R)-2,5-diethyl-4-((S)-1-(4-(trifluoromethyl)phenyl)propyl)piperazin-1-yl)-1-methyl-2-oxo-1,2-dihydropyrido[3,2-d]pyrimidine-6-carbonitrile] as the molecule, how does the “CAR-T cell cytolytic activity against CD19-expressing lymphoma cells” value [1] read?
Answer: decreased CAR-T cell cytolytic activity against the CD19-expressing lymphoma cells in a dose-dependent manner

Question: What about the “cytolytic activity of CAR T cells against K562.CD19 cells” value (K562.CD19 cells) of the same molecule?
Answer: improved the cytolytic activity of CAR T cells against K562.CD19 and Granta-519 cells

Question: And the “CAR T cell expansion and/or persistence” value (anti-CD19 CAR T cells)?
Answer: CAR T cell expansion and/or persistence was increased in all mice

Question: And the “cytolytic activity of CAR T cells against Granta-519 cells” value (Granta-519 cells)?
Answer: improved the cytolytic activity of CAR T cells against K562.CD19 and Granta-519 cells

Question: What about the “production of IFNγ, IL-2 and TNFα” value [2] of the same molecule?
Answer: dose-dependent increase in production of all three cytokines

Question: And the T cell viability (anti-CD19 CAR-T cells)?
Answer: no impact of Compound 17 on T cell viability was observed

Question: What about the EC50 (Human venous whole blood) of the same molecule?
Answer: 20 nM

Question: What about the survival after re-challenge (Nalm6-rFluc cells; re-challenge Day 71 after CAR T + Compound 17, until 30 days post re-challenge) of the same molecule?
Answer: survival benefit

Question: And the “tumor growth after re-challenge” value (Nalm6-rFluc cells; re-challenge Day 71 after CAR T + Compound 17, vs naive mice)?
Answer: delayed tumor growth

Question: And the “cytolytic activity of CAR T cells against Granta-519 spheroids” value [3]?
Answer: improved the cytolytic activity of CAR T cells against both A549.CD19 and Granta-519 tumor spheroids

Question: What about the “tumor suppression (tumor control index), Early regimen” value ([4]; 0.3 mg/kg oral once daily Days 1-14 with CAR T cells, relative to vehicle) of the same molecule?
Answer: enhanced tumor suppression

Question: And the “survival, Continuous regimen” value ([4]; 0.3 mg/kg oral once daily Days 1-28 with 1×10^6 CAR T cells)?
Answer: improved survival

Question: What about the “tumor burden, Continuous regimen” value ([4]; 0.3 mg/kg oral once daily Days 1-28 with CAR T cells) of the same molecule?
Answer: reduced tumor burden

Question: And the “tumor suppression (tumor control index), Continuous regimen” value ([4]; 0.3 mg/kg oral once daily Days 1-28 with CAR T cells, relative to vehicle)?
Answer: enhanced tumor suppression

Question: And the “tumor suppression (tumor control index), Delayed regimen” value ([4]; 0.3 mg/kg oral once daily Days 14-42 with CAR T cells, relative to vehicle)?
Answer: did not

Question: What about the “CAR T cell expansion, Day 15, Early or Continuous regimen” value [4, 5] of the same molecule?
Answer: increased CAR T cell expansion

Question: And the “CD4:CD8 ratio, Day 15, Early or Continuous regimen” value [4, 5]?
Answer: increase in CD4:CD8 ratio

Question: What about the “CAR T cell expansion and CD4:CD8 ratio, Day 15, Delayed regimen” value ([4]; single 0.3 mg/kg oral dose, relative to vehicle) of the same molecule?
Answer: did not
